Columns and labels:
HEK293 cells = test: MTT cytotoxicity assay; format: cell-based, human; conditions: HEK293, 24 h, 0 to 100 µM
[1] = ref [41]; cited from earlier work
SARS-CoV-2 M^pro = SARS-CoV-2 M^pro (Severe acute respiratory syndrome coronavirus 2, UniProt P0DTD1); format: binding; conditions: modified Stern–Volmer plot

| SMILES | cytotoxicity / cell viability (HEK293 cells) | solubility in organic solvents [1] | KSV (SARS-CoV-2 M^pro) | number of binding sites (SARS-CoV-2 M^pro) |
| --- | --- | --- | --- | --- |
| O=c1c(O)c(-c2ccc(O)c(O)c2)oc2cc(O)cc(O)c12 [Quercetin] | consistent and high cell viability | – | – | – |
| COc1cc2ccc(=O)oc2cc1O [Scopoletin, 6-methoxy-7-hydrocoumarian] | maintained acceptable cell viability | dissolves in organic solvents such as methanol and chloroform | 932000 M⁻¹ | one |

Source: paper PMC11945487 (Viruses, 2025)
